The data set is described as follows: Human HepG2 cell viability assay in 384 well format. Also noted: dose 125 nL, time 70.5 hour; cytotoxicity at 70.5 h: concentration not given beside the values. The conditions noted are these: HepG2 cells, read-out: Inhibition. The data set is classed as toxicity, cell-based.
Turning to `N#Cc1ccc(Oc2cc(F)c(CN3CCCC3)c(F)c2)nc1`, the cytotoxicity at 70.5 h is -2.2%.
As to `CCc1ccc(-c2nn3c(nc2=O)-c2ccccc2NC3C(=O)O)cc1` (stereo not drawn), the cytotoxicity at 70.5 h was -10.4%.
For the compound `CC(C)c1nccn1CCn1cnc2ccsc2c1=O`, the cytotoxicity at 70.5 h was -8.28%.
Next, `OCC(O)CN(CCN1CCOCC1)Cc1ccco1` (stereo not drawn): -8.67%.
Take `O=C(NC1CCC1)[C@H]1CCS(=O)(=O)[C@@H]2CN(CCc3ccccc3)C[C@H]12`: the cytotoxicity at 70.5 h came out at 0.419%.
Next, `CC1CCCCN1CCNC(=O)c1ccn(-c2ccccc2)n1` (stereo not drawn): 13.6%; `Cc1cnc(C(=O)N2CCC3(CCCN(c4nncs4)C3)C2)cn1` (stereo not drawn): -0.974%.
Under `Cc1cc(-c2cnc(N3CCOCC3)nc2-c2ccc(C)s2)on1` stands -3.57%.
Next, `Cn1cc(CC2CCN(C(=O)NCCc3cccc(O)c3)C2)cn1` (stereo not drawn): -12.6%; `CSC1(CNC(=O)c2ccn(-c3ccccc3F)n2)CCOCC1`: -8.53%; `Cc1cnc(-c2nc(NC3CC3)ncc2-c2cc(C)no2)cn1`: 12%.
In the case of `Cc1nc(C)n(CC2CCCN(CCCOc3ccc(F)cc3)C2)n1` (stereo not drawn), the cytotoxicity at 70.5 h is -2.75%.
`CCS(=O)(=O)CCSc1cccc(C#N)c1`: the cytotoxicity at 70.5 h was -23.7%.
In the case of `O=S1(=O)NC(C2CCCN(S(=O)(=O)N3CCCC3)C2)=Nc2ccccc21` (stereo not drawn), the cytotoxicity at 70.5 h was -6.9%.
Next, `Cc1cccc(CN2CCc3nnc(CN4CCCCC4)n3CC2)n1`: -5.9%.
Under `Cc1ccc(N2C[C@H](C(=O)NCC3CC3)[C@@H]3CCO[C@@H]3C2)nn1` stands -9.32%.
Under `Cc1ccc(-c2csc(-c3cccc(C(=O)O)c3)n2)cc1` stands 19.5%.
As for `CC(C)CCN1N=C(C(=O)N2CCCCCC2)S(=O)(=O)c2ccccc21`, the cytotoxicity at 70.5 h was determined as 21.7%.
Next, `Cc1ccc(CN2C[C@@H]3CCN(Cc4ccncc4)C(=O)[C@H]3C2)s1`: -8.9%; `COCCn1cc(NCc2cccc3cn[nH]c23)cn1`: -5.47%; `Cc1ccc(N2CCCC(N3CCN(CC(F)F)CC3)C2=O)cc1` (stereo not drawn): -6.94%.
Under `CC(=O)N1CCN(c2cc(CCN)nc(C3CC3)n2)CC1` stands -1.97%.
Under `Cc1cc(NCC(C)C)ccc1C(=O)N(C)C` stands 13.4%.
As to `Cc1nc(NCC2CC2)nc2c1COCC21CCN(S(=O)(=O)C2CC2)C1` (stereo not drawn), the cytotoxicity at 70.5 h is -15.4%.
Next, `Cn1ccc2c(C(=O)NCCCS(C)(=O)=O)cccc21`: 5.4%; `Cc1ccc(C(=O)N2CCC(c3nccn3C(C)C)CC2)c(=O)[nH]1`: -6.37%.
Next, `Cc1cc(F)ccc1S(=O)(=O)N(C)CC(N)=O`: -6.18%.
Under `COc1cccc(-c2ccc3nc(C4CCN(C(C)=O)CC4)nn3c2)c1` stands -4.61%.
Turning to `COc1ccc(Oc2ncccc2F)cc1CN1CCCC1`, the cytotoxicity at 70.5 h is 3.51%.
Take `Cc1cccc(-c2noc(CN3CCOC(Cn4cccn4)C3)n2)c1` (stereo not drawn): the cytotoxicity at 70.5 h was -11.5%.
As to `COc1c(CNCc2nnc3n2CCCCC3)c(C)nn1C`, the cytotoxicity at 70.5 h is -6.68%.
Under `O=C(NCc1ccoc1)Nc1ccc(CN2CCOC2=O)cc1` stands 19%; under `Cc1nc2n(n1)CC(NCc1nnc(C(C)(C)C)o1)CC2` (stereo not drawn), -6.83%.
Turning to `CCN(Cc1nonc1C)C(=O)c1ccc(Br)o1`, the cytotoxicity at 70.5 h was -4.49%.
Under `c1ccc(CN2CCCC(Cn3cncn3)C2)nc1` (stereo not drawn) stands 20.8%; under `COCCCNC(=O)Cc1nc(-c2ccncc2)n[nH]1`, -1.85%; under `COc1c(CNC2CCN(C(=O)C(C)C)CC2)c(C(C)C)nn1C`, 19.1%.
Next, `Cc1nc(CO[C@@H]2CN(Cc3cccs3)[C@@H]3COC[C@@H]32)cs1`: -9.88%; `O=C(c1cc(F)ccc1F)C1CCN(C(=O)c2cccnc2O)CC1`: -16.4%.
Under `CN(Cc1cc2n(n1)CCN(C(=O)[C@H]1CCCO1)C2)Cc1nccs1` stands 46.3%; under `CC(O)CN1CCN(C(=O)c2ccc(CN(C)C)cc2)CC1` (stereo not drawn), -0.592%.
With `COCC(=O)N1CCc2ccc(=O)n(Cc3csc(C)n3)c2CC1`, the cytotoxicity at 70.5 h was -6.47%.
As to `CC(=O)N1CCCC1c1cccc(Cc2ccc(F)cc2)n1` (stereo not drawn), the cytotoxicity at 70.5 h is -14.3%.
Next, `Cc1cccc(CNC(Cc2ccsc2)c2nc(C)c(C)s2)n1` (stereo not drawn): 1.1%.
For the compound `O=C(NCC1CC1)[C@@H]1C[C@@H]2CCN(Cc3ccccc3)C[C@H]2O1`, the cytotoxicity at 70.5 h was -6.35%.
Next, `Cc1nn(C(C)C)cc1S(=O)(=O)N(C)Cc1nonc1C`: -7.62%; `Cc1nn(Cc2ccc(C(=O)NCCCN3CCCC3=O)o2)c(C)c1Br`: -7.69%; `c1cnc2c(c1)cc([C@H]1CCCO1)n2CCN1CCOCC1`: -27.8%.
Next, `CN1CCN(C[C@H]2CN3CC[C@H]2C[C@@H]3CNC(=O)c2ccco2)CC1`: -6.36%; `COc1ccc2cc(C(=O)N3CCCC3Cn3cc(C)cn3)[nH]c2c1` (stereo not drawn): 2.37%; `CC(C)(C(=O)NCCS(N)(=O)=O)c1cccc(Br)c1`: -6.85%.
Under `Cn1cc(CN2C[C@@H]3CCC[C@@H](OCc4cccnc4)[C@@H]3C2)cn1` stands 3.45%; under `CC(C)NC(=O)C1CCN(Cn2ccc(-c3ccc(F)cc3)n2)CC1`, 4%; under `CCOc1ccc2oc(-c3cnn(C)c3C)c(O)c(=O)c2c1`, -3.56%.
For `Cc1ccc(OCCN2CCC(c3nc(C)n4c(C)csc34)CC2)cc1`, the cytotoxicity at 70.5 h amounted to 3.59%.
Next, `COc1ccc(C(=O)N2CC(=O)N(C3CCC3)CC(O)C2)c(OC)c1` (stereo not drawn): -1.09%; `COc1nc(C)ccc1CNC(=O)NC(C)Cc1c(C)nn(C)c1C` (stereo not drawn): -9.98%; `CN(Cc1ccco1)C(=O)[C@H]1CSCN1C(=O)OC(C)(C)C`: -1.49%.
Next, `OC1(CN2CCCC2)COCCN(c2ncnc3[nH]cnc23)C1` (stereo not drawn): -0.684%; `COCCN1CCN(CCCS(=O)(=O)N(C)C)CC1C` (stereo not drawn): -2.19%.
On to `Cn1nc(C(=O)NCc2ccc(F)cc2)c2c1CCS(=O)(=O)C2`, for which the cytotoxicity at 70.5 h is -6.3%.
On to `O=C(C1CCOCC1)N1CCc2ncc(CN3CCCC3)n2CC1`, for which the cytotoxicity at 70.5 h is -13.2%.
Under `CCn1nc2c(cc1=O)CN(Cc1nc(-c3cccs3)no1)CC2` stands -12.8%; under `Cn1nccc1NC(=O)Cn1ccc(-c2ccc3c(c2)OCO3)n1`, -22.6%.
Next, `Cc1csc(C(=O)N2CCC3(CC(N(C)c4ccncn4)C3)C2)c1` (stereo not drawn): -5.37%.
For `CCN1C(=O)CCC12CCCN(S(=O)(=O)c1cccc(C)c1)CC2` (stereo not drawn), the cytotoxicity at 70.5 h is -2.78%.
Under `CCn1nc(C)c2nc(C(C)C)nc(NCCCn3cccn3)c21` stands -4.58%; under `COCC1CC2(CCN(Cc3cccnc3)CC2)CN1C(C)C` (stereo not drawn), -7.91%.
Under `O=C1CC2(CCN(C(=O)c3ccccn3)CC2)Oc2c(Br)cc(Br)cc21` stands 1.74%; under `O=C(Nc1ccccc1OCCc1ccccn1)NC1CCOCC1`, 18.2%; under `CC(C)C(O)CNC(=O)Nc1cnn(Cc2ccccc2)c1` (stereo not drawn), -1.15%.
Under `Cn1cnnc1C1CCCN(C(=O)Cc2ccc3c(c2)OCCO3)C1` (stereo not drawn) stands 0.026%; under `CN1CCC(C(=O)N2CCC(c3ccc4c(N)n[nH]c4n3)CC2)CC1`, -0.601%; under `CC(C)N1CCN(C(=O)c2csc3nc(-c4ccc(Cl)cc4)cn23)CC1`, -16.3%.
For `O=C(NCCCNC(=O)c1ccc(F)cc1F)c1cccc(O)c1`, the cytotoxicity at 70.5 h was -1.34%.
Next, `COC(=O)[C@H](C)NC(=O)Cc1c(C)nc2cc(=O)[nH]n2c1C`: -7.8%; `c1cc(-c2ccc(CN3CCC4(CCNCC4)CC3)s2)[nH]n1`: -2.82%.
Under `COc1cccc2c1CCN(C(=O)NCc1nnc3ccccn13)C2` stands 0.687%; under `COCc1nc(CNC2CCN(C(C)C)CC2)no1`, -8.15%.
Under `COCc1ccccc1NC(=O)CCNC(=O)c1ccoc1` stands -13.1%.
With `CCOCC1CC2(CCN(C(=O)C3CCSCC3)CC2)CO1` (stereo not drawn), the cytotoxicity at 70.5 h stood at 8.92%.
Next, `CCn1c(C)nnc1SCCNC(=O)c1cnc(N(C)C)nc1C`: -2.09%; `COc1ccc(CN(C)C(=O)CN2CC(n3cc(C)cn3)C2)cc1F`: -2.77%.
Next, `Cc1ccc(CN(Cc2nc3c(cnn3C)c(=O)[nH]2)C(C)C)s1`: -0.211%; `Cc1ccc2c(c1)c(C)cc(=O)n2CCCN`: -4.61%; `COc1cc(N2C[C@@H]3COC[C@]3(COc3cccnc3)C2)ncn1`: -5%.
With `CC1c2ncc(COCC3CCOCC3)n2CCN1Cc1cccnc1` (stereo not drawn), the cytotoxicity at 70.5 h is -4.06%.
Next, `CC(CC(=O)Nc1ccc(C(=O)N(C)C)c(Cl)c1)n1cccc1` (stereo not drawn): 7.79%.
Under `O=C(Nc1ccc(Br)cc1F)c1ccc(N2CCOCC2)nn1` stands -6.45%; under `Clc1ccccc1C1(c2ccnc(-c3ncccn3)n2)CCNCC1`, -12.3%.
Take `CCC(=O)NC1CCCN(Cn2nc(C(C)(C)C)ccc2=O)C1` (stereo not drawn): the cytotoxicity at 70.5 h is -4.43%.
Turning to `CC(=O)N1CCC2(CC1)C(=O)N(C)c1ccc(F)cc12`, the cytotoxicity at 70.5 h was -8.53%.
Regarding `CC(NC(=O)C1(NC(=O)c2ccc3[nH]ncc3c2)CCCC1)C1CC1` (stereo not drawn), the cytotoxicity at 70.5 h was -5.24%.
Next, `CC(c1ccncc1)N(C)C(=O)NCCOc1ccc(C#N)cc1` (stereo not drawn): 16.9%; `CC(C)C1SCC(=O)Nc2c1cnn2C(C)C` (stereo not drawn): -23.1%.
Next, `Cc1nc[nH]c1CN1C[C@@H]2OCCN(c3ncccn3)[C@@H]2C1`: -10.6%.
Under `O[C@@H]1CN(c2nc3ccccc3o2)CC[C@H]1c1ccc2c(c1)OCO2` stands 14.9%.
For `Cc1cnc(CNc2ccc(C(=O)NCc3ccco3)cc2C)o1`, the cytotoxicity at 70.5 h was found to be 6.63%.

The record behind these values is ChEMBL document CHEMBL3507680, “University of Dundee, Gates Library screen for HepG2 cell viability”.
